Data on 56 molecules can be found in ChEMBL document CHEMBL3987221, “The Australian National University Dept Of Immunology Pathogen Box Compounds Screened” (2018).

The source made the active and inactive calls. No rule for the calls is given here.

In assay [1] the target is T1, Ferrochelatase, mitochondrial (Homo sapiens) (UniProt P22830).
T1 sequence (whole entry): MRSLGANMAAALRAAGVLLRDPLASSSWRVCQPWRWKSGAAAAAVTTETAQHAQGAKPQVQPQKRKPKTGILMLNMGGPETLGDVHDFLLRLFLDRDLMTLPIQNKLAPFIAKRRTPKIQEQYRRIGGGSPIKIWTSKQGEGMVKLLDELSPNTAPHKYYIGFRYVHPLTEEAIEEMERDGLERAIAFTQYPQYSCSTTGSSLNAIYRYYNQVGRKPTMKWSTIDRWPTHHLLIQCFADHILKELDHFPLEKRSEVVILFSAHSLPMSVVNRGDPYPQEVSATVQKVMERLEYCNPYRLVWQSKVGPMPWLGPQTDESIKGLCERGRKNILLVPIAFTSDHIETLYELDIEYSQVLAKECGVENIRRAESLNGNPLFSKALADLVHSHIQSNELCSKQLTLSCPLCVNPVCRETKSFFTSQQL
Particulars: at 10 µM.
Description: Compound was evaluated for the inhibition of human FECH at 10uM

Assay [2] has as its target T2, Porphobilinogen deaminase (Homo sapiens) (UniProt P08397).
T2 sequence (whole entry): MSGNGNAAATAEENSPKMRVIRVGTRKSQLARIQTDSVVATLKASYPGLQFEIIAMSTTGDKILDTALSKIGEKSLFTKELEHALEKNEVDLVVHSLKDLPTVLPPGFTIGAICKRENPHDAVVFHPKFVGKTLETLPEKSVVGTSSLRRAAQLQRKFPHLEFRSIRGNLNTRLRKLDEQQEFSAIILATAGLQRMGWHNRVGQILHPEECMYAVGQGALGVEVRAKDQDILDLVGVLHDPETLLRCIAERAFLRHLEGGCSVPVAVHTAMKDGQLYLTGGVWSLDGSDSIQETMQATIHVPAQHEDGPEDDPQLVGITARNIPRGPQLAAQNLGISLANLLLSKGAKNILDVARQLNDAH
As to conditions: at 100 µM.
Description: Compound was evaluated for the inhibition of human HMBS at 100uM

Take `O=C(Nc1cccc(-c2ccc(NCCCN3CCCC3)nc2)c1)c1ccccc1`: the inhibition result in assay [1] and in assay [2] was “inactive” in each case.
With `NC(CC(=O)c1ccc(Cl)cc1Cl)C(Cl)(Cl)Cl` (configuration not stated), the inhibition result in assay [1] and in assay [2] was “inactive” in each case.
On to `CC(C)=CCC/C(C)=C\CNCCNC1C2CC3CC(C2)CC1C3` (configuration not stated), for which the inhibition result in assay [1] and in assay [2] was “inactive” each time.
On to `Nc1nc2cc(-c3cncc(Oc4ccc(F)cc4)c3)ccc2[nH]1`, for which the inhibition entry in assay [1] and in assay [2] was “inactive” in each case.
For `O=C1O[C@@H](COc2ccon2)CN1c1cc(F)c(C2=CCN(Cc3ccccc3)CC2)c(F)c1`, the inhibition result in assay [1] and in assay [2] was “inactive” in each case.
As for `O=C(NCCc1ccn(-c2ccccc2)n1)C1CCCCC1`, the inhibition result in assay [1] and in assay [2] was “inactive” in each case.
Take `CCCCCCCCCCCCCCCCOP(=O)([O-])OCC[N+](C)(C)C`: the inhibition result in assay [1] and in assay [2] was “inactive” throughout.
Take `COc1ccc(-c2cncc3ccc(C(=O)NCCCn4ccnc4)nc23)cc1`: the inhibition result in assay [1] and in assay [2] was “inactive” each time.
In the case of `O=C(Nc1ccc(F)c(-c2nc3cc(-c4ccccc4)cnc3[nH]2)c1)N1CCCC1`, the inhibition entry in assay [1] and in assay [2] was “inactive” each time.
In the case of `CCc1nc2ccccc2n1CC(O)COc1cc(C)ccc1Cl` (configuration not stated), the inhibition result in assay [1] and in assay [2] was “inactive” each time.
Consider `Cc1cc(NC(=O)c2ccc(Oc3ccc(Cl)cc3O)o2)no1`, for which the inhibition result in assay [1] and in assay [2] was “inactive” in each case.
As to `COc1ccc(C2=NN(C3CCCCCC3)C(=O)[C@@H]3CC=CC[C@H]23)cc1OCCCCOc1ccc(-c2nnn[nH]2)cc1`, the inhibition result in assay [1] and in assay [2] was “inactive” throughout.
Turning to `Nc1ccc2ncnc(Nc3ccc(OCc4cccc(F)c4)c(Cl)c3)c2c1`, the inhibition entry in assay [1] and in assay [2] was “inactive” throughout.
With `CCCCc1ccc(C(=O)Nc2nccc3ccccc23)nc1`, the inhibition result in assay [1] and in assay [2] was “inactive” in each case.
`O=C(c1ccco1)N(CCCn1ccnc1)c1nc2c(Cl)cccc2s1`: the inhibition entry in assay [1] and in assay [2] was “inactive” throughout.
For the molecule `Nc1ncnc2c1c(-c1cnc3ccccc3c1)nn2CC1CCNCC1`, the inhibition entry in assay [1] and in assay [2] was “inactive” throughout.
In the case of `c1ccc(Oc2ccc(-c3cc(N4CCOCC4)[nH]n3)cc2)cc1`, the inhibition result in assay [1] and in assay [2] was “inactive” each time.
Turning to `COc1cccc(NC(=O)c2c(NC(=O)c3cccnc3)sc3c2CCC3)c1`, the inhibition result in assay [1] and in assay [2] was “inactive” in each case.
In the case of `Nc1ncnc2c1c(Cc1cccc3ccccc13)nn2CC1CCNCC1`, the inhibition result in assay [1] and in assay [2] was “inactive” each time.
On to `O=C(C1CCN(c2cc(-n3cccc3)ncn2)CC1)N1CCc2ccccc2C1`, for which the inhibition result in assay [1] and in assay [2] was “inactive” throughout.
`CCN(CC)CCCCCCNc1cc(OC)cc2c(C)ccnc12`: the inhibition result in assay [1] and in assay [2] was “inactive” each time.
With `O=C(Nc1cnc2ccccc2c1)c1cccc(-n2cnnn2)c1`, the inhibition entry in assay [1] and in assay [2] was “inactive” each time.
As for `Cc1cc(C)nc(-n2nc(C)cc2Nc2ccccc2)n1`, the inhibition entry in assay [1] and in assay [2] was “inactive” each time.
With `Cc1nc(-c2cccc(NCc3ccccc3)c2)[nH]c1C`, the inhibition result in assay [1] and in assay [2] was “inactive” in each case.
Take `COc1cccc(CC(=O)N2CCC(n3c(C)nc4ccc(F)cc43)CC2)c1`: the inhibition entry in assay [1] and in assay [2] was “inactive” throughout.
On to `c1coc(CNc2nc(N3CCCCC3)nc3ccccc23)c1`, for which the inhibition entry in assay [1] and in assay [2] was “inactive” each time.
For the molecule `N#Cc1ccc(-c2cnc(N)c(-c3ccc(C(N)=O)cc3)n2)cc1`, the inhibition result in assay [1] and in assay [2] was “inactive” throughout.
With `COc1ccc(C2=NN(C3CCCCCC3)C(=O)C2(C)C)cc1OCCCCOc1ccc(-c2nn[nH]n2)cc1`, the inhibition entry in assay [1] and in assay [2] was “inactive” in each case.
As for `CC(C)(C(=O)Nc1ccc(F)cc1)n1cc(-c2ccccc2F)cn1`, the inhibition entry in assay [1] and in assay [2] was “inactive” in each case.
As to `Nc1ncc(-c2ccc(C(F)(F)F)nc2)cc1-c1ccc(C(F)(F)F)nc1`, the inhibition result in assay [1] and in assay [2] was “inactive” in each case.
In the case of `CC[C@@H]([C@H](C)O)n1ncn(-c2ccc(N3CCN(c4ccc(OC[C@@H]5CO[C@@](Cn6cncn6)(c6ccc(F)cc6F)C5)cc4)CC3)cc2)c1=O`, the inhibition entry in assay [1] and in assay [2] was “inactive” throughout.
`COc1ccc(C(=N)N)cc1-c1cn(-c2ccc(C(=N)N)cc2)nn1`: the inhibition result in assay [1] and in assay [2] was “inactive” throughout.
`CC(C)(C)OC(=O)N1CCN(c2nccc(-c3ccc(-c4ccc(Cl)cc4)s3)n2)CC1`: the inhibition entry in assay [1] and in assay [2] was “inactive” each time.
`CC(=O)NC[C@@H]1CN(c2ccc(N3CCOCC3)c(F)c2)C(=O)O1`: the inhibition entry in assay [1] and in assay [2] was “inactive” in each case.
Turning to `Cn1ncc2c(N3CCOCC3)nc(NCCc3c[nH]c4ccccc34)nc21`, the inhibition entry in assay [1] and in assay [2] was “inactive” throughout.
`CS(=O)(=O)c1cccc(-c2cnc3[nH]cc(-c4ccc(CCC(=O)O)cc4)c3c2)c1`: the inhibition result in assay [1] and in assay [2] was “inactive” in each case.
Take `CC(C)NCC(=O)Nc1cccc(C(=O)Nc2cccc(C(F)(F)F)c2)c1`: the inhibition result in assay [1] and in assay [2] was “inactive” throughout.
On to `CCc1ccc(S(=O)(=O)Nc2cc(CN3CCN(CCC(C)C)CC3)ccc2C)cc1`, for which the inhibition entry in assay [1] and in assay [2] was “inactive” throughout.
For the molecule `c1ccc(Oc2ccc(-c3cncc(-c4ccc5[nH]ccc5c4)n3)cc2)cc1`, the inhibition result in assay [1] and in assay [2] was “inactive” throughout.
With `COc1ccc(C2CC(c3cccs3)=NN2C(=O)c2ccco2)cc1OC` (configuration not stated), the inhibition result in assay [1] and in assay [2] was “inactive” in each case.
As for `Cc1ccc(NC(=O)c2nc[nH]c2C(=O)Nc2nc3ccccc3[nH]2)c(C)c1`, the inhibition entry in assay [1] and in assay [2] was “inactive” each time.
`Cc1cc(C(=O)Nc2ccc(-c3ccccc3)cc2)no1`: the inhibition entry in assay [1] and in assay [2] was “inactive” in each case.
As for `CCc1nc2ccc(Cl)cn2c1C(=O)NCc1ccc(N2CCC(c3ccc(OC(F)(F)F)cc3)CC2)cc1`, the inhibition result in assay [1] and in assay [2] was “inactive” in each case.
For `CCNC(=O)C(C)Nc1nc(-c2cccnc2)nc2sc(C)c(C)c12` (configuration not stated), the inhibition result in assay [1] and in assay [2] was “inactive” each time.
Turning to `O=C(Cn1ccnc1[N+](=O)[O-])NCc1ccccc1`, the inhibition entry in assay [1] and in assay [2] was “inactive” each time.
As for `N#CCN(CCCCN1CCN(c2ccc(F)cc2)CC1)C(=O)OCc1ccccc1`, the inhibition entry in assay [1] and in assay [2] was “inactive” throughout.
Turning to `Nc1c2c(nc3sc4c(c13)CCCC4)CCCC2`, the inhibition result in assay [1] and in assay [2] was “inactive” each time.
With `COc1cc(NC(C)CCCN)c2ncccc2c1` (configuration not stated), the inhibition entry in assay [1] and in assay [2] was “inactive” each time.
Take `CC(C(=O)Nc1ccc2oc(-c3ccncc3)nc2c1)c1ccccc1` (configuration not stated): the inhibition entry in assay [1] and in assay [2] was “inactive” in each case.
As for `COc1ccc(-c2nn(C(C)C)c3ncnc(N)c23)cc1OC`, the inhibition result in assay [1] and in assay [2] was “inactive” each time.
On to `OCCc1ccc(Nc2nccc(-c3nnc4ccccn34)n2)cc1`, for which the inhibition result in assay [1] and in assay [2] was “inactive” each time.
For the molecule `O=C(Nc1nnc(-c2ccc(Cl)s2)o1)c1ccc(Cl)s1`, the inhibition result in assay [1] and in assay [2] was “inactive” throughout.
Take `CC(C)(C)C(O)C(Oc1ccc(-c2ccccc2)cc1)n1cncn1` (configuration not stated): the inhibition entry in assay [1] and in assay [2] was “inactive” each time.
As for `Clc1cccc(CO[C@H]2CCc3ccccc3[C@@H]2n2ccnn2)c1`, the inhibition entry in assay [1] and in assay [2] was “inactive” throughout.
Regarding `COCC(C)NC(=O)CSc1ncnc2sc(-c3ccccc3)cc12` (configuration not stated), the inhibition entry in assay [1] and in assay [2] was “inactive” in each case.
For the molecule `CCCn1c(CNc2ccccc2O)nc2ccccc21`, the inhibition entry in assay [1] and in assay [2] was “inactive” throughout.
